Assay results: patent publication US10172830B2, “Pyrazolone compounds having human neutrophil elastase inhibitory properties” (CHIESI FARMACEUTICI S.P.A., priority 2016, dated 2019)

Molecular target: T1, human neutrophil elastase (HNE) (Homo sapiens, UniProt P08246)
T1 construct: purchased Sigma E8140
T1 sequence (P08246 30-247 limits assumed): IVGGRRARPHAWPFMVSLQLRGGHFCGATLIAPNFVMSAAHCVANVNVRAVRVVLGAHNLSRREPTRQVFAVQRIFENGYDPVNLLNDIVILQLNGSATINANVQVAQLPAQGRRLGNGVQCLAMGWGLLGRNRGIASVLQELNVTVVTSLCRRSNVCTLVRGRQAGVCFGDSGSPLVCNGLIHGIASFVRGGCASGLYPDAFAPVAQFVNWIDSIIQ
Assay: HNE enzyme assay (human neutrophil elastase enzyme activity assay)
Assay type: biochemical
Conditions: human leukocyte elastase 0.00072 U/mL; substrate MeOSuc-Ala-Ala-Pro-Val-AMC 100 μM; 25° C. for 30 minutes; at least two separate experiments; read-out: HNE inhibition (HNE enzyme inhibition, IC50 values)
Procedure, shortened: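 Human leukocyte elastase (0.00072 U/mL) with 100 μM MeOSuc-AAPV-AMC in Tris/NaCl/CaCl2/Brij-35 buffer, pH 7.5, 1% DMSO, 30 min at 25 °C; stopped with soybean trypsin inhibitor. AMC fluorescence (380/460 nm) as % inhibition of control; IC50 from dose-response curves, ≥2 experiments.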

Compound	IC50
Cn1c(-c2ccnn2-c2ccc(C#N)cc2)c(C(=O)N[C@H]2CC[C@H](CNC(=O)C[N+](C)(C)C)CC2)c(=O)n1-c1cccc(C(F)(F)F)c1 [Example 54, {[(Trans-4-{[2′-(4-cyano-phenyl)-2-methyl-5-oxo-1-(3-trifluoromethyl-phenyl)-2,5-dihydro-1H,2′H-[3,3′]bipyrazolyl-4-carbonyl]-amino}-cyclohexylmethyl)-carbamoyl]-methyl}-trimethyl-ammonium benzene sulphonate]	< 1 nM
Cn1c(-c2ccnn2-c2ccc(C#N)cc2)c(C(=O)N[C@H]2C[C@H](C(=O)NC3CC[N+](C)(C)CC3)C2)c(=O)n1-c1cccc(C(F)(F)F)c1 [Example 55, 4-[(Trans-3-{[2′-(4-cyano-phenyl)-2-methyl-5-oxo-1-(3-trifluoromethyl-phenyl)-2,5-dihydro-1H,2′H-[3,3′]bipyrazolyl-4-carbonyl]-amino}-cyclobutanecarbonyl)-amino]-1,1-dimethyl-piperidinium benzene sulphonate]	< 1 nM
C[C@H](NC(=O)c1c(-c2ccnn2-c2ccc(C#N)cc2)n(C)n(-c2cccc(C(F)(F)F)c2)c1=O)C(=O)N(C)C1CC[N+](C)(C)CC1 [Example 56, 4-[((S)-2-{[2′-(4-Cyano-phenyl)-2-methyl-5-oxo-1-(3-trifluoromethyl-phenyl)-2,5-dihydro-1H,2′H-[3,3′]bipyrazolyl-4-carbonyl]-amino}-propionyl)-methyl-amino]-1,1-dimethyl-piperidinium benzene sulphonate]	< 1 nM
Cn1c(-c2ccnn2-c2ccc(C#N)cc2)c(C(=O)NC2(C(=O)NCC[N+](C)(C)C)CCCC2)c(=O)n1-c1cccc(C(F)(F)F)c1 [Example 57, {2-[(1-{[2′-(4-Cyano-phenyl)-2-methyl-5-oxo-1-(3-trifluoromethyl-phenyl)-2,5-dihydro-1H,2′H-[3,3′]bipyrazolyl-4-carbonyl]-amino}-cyclopentanecarbonyl)-amino]-ethyl}-trimethyl-ammonium benzene sulphonate]	< 1 nM
Cn1c(-c2ccnn2-c2ccc(C#N)cc2)c(C(=O)N[C@H]2CC[C@H](C(=O)NC3CC[N+](C)(C)CC3)CC2)c(=O)n1-c1cccc(C(F)(F)F)c1 [Example 58, 4-[(4-{[2′-(4-Cyano-phenyl)-2-methyl-5-oxo-1-(3-trifluoromethyl-phenyl)-2,5-dihydro-1H,2′H-[3,3′]bipyrazolyl-4-carbonyl]-amino}-cyclohexanecarbonyl)-amino]-1,1-dimethyl-piperidinium benzene sulphonate]	< 1 nM
Cn1c(-c2ccnn2-c2ccc(C#N)cc2)c(C(=O)N[C@H]2CC[C@H](C(=O)OC3CC[N+](C)(C)CC3)CC2)c(=O)n1-c1cccc(C(F)(F)F)c1 [Example 59, 4-(Trans-4-{[2′-(4-cyano-phenyl)-2-methyl-5-oxo-1-(3-trifluoromethyl-phenyl)-2,5-dihydro-1H,2′H-[3,3′]bipyrazolyl-4-carbonyl]-amino}-cyclohexanecarbonyloxy)-1,1-dimethyl-piperidinium benzene sulphonate]	< 1 nM
Cn1c(-c2ccnn2-c2ccc(C#N)cc2)c(C(=O)N[C@H]2CC[C@H](C(=O)N3CCC([N+](C)(C)C)CC3)CC2)c(=O)n1-c1cccc(C(F)(F)F)c1 [Example 60, [1-(4-{[2′-(4-Cyano-phenyl)-2-methyl-5-oxo-1-(3-trifluoromethyl-phenyl)-2,5-dihydro-1H,2′H-[3,3′]bipyrazolyl-4-carbonyl]-amino}-cyclohexanecarbonyl)-piperidin-4-yl]-trimethyl-ammonium benzene sulphonate]	< 1 nM
CN(CC[N+](C)(C)C)C(=O)C1(NC(=O)c2c(-c3ccnn3-c3ccc(C#N)cc3)n(C)n(-c3cccc(C(F)(F)F)c3)c2=O)CCCC1 [Example 61, {2-[(1-{[2′-(4-Cyano-phenyl)-2-methyl-5-oxo-1-(3-trifluoromethyl-phenyl)-2,5-dihydro-1H,2′H-[3,3′]bipyrazolyl-4-carbonyl]-amino}-cyclopentanecarbonyl)-methyl-amino]-ethyl}-trimethyl-ammonium benzene sulphonate]	< 1 nM
Cn1c(-c2ccnn2-c2ccc(C#N)cc2)c(C(=O)N[C@H]2CC[C@H](OC(=O)C[N+](C)(C)C)CC2)c(=O)n1-c1cccc(C(F)(F)F)c1 [Example 62, (Trans-4-{[2′-(4-cyano-phenyl)-2-methyl-5-oxo-1-(3-trifluoromethyl-phenyl)-2,5-dihydro-1H,2′H-[3,3′]bipyrazolyl-4-carbonyl]-amino}-cyclohexyloxycarbonylmethyl)-trimethyl-ammonium benzene sulphonate]	< 1 nM
Cn1c(-c2ccnn2-c2ccc(C#N)cc2)c(C(=O)NC2CCN(C(=O)CC[N+](C)(C)C)CC2)c(=O)n1-c1cccc(C(F)(F)F)c1 [Example 63, 3-(4-{[2′-(4-Cyano-phenyl)-2-methyl-5-oxo-1-(3-trifluoromethyl-phenyl)-2,5-dihydro-1H,2′H-[3,3′]bipyrazolyl-4-carbonyl]-amino}-piperidin-1-yl)-3-oxo-propyl]-trimethyl-ammonium benzene sulphonate]	< 1 nM
Cn1c(-c2ccnn2-c2ccc(C#N)cc2)c(C(=O)NC2(C)CCN(C(=O)C[N+](C)(C)C)CC2)c(=O)n1-c1cccc(C(F)(F)F)c1 [Example 64, [2-(4-{[2′-(4-Cyano-phenyl)-2-methyl-5-oxo-1-(3-trifluoromethyl-phenyl)-2,5-dihydro-1H,2′H-[3,3′]bipyrazolyl-4-carbonyl]-amino}-4-methyl-piperidin-1-yl)-2-oxo-ethyl]-trimethyl-ammonium benzene sulphonate]	< 1 nM
Cn1c(-c2ccnn2-c2ccc(C#N)cc2)c(C(=O)N[C@H]2CC[C@H](C(=O)OCC[N+](C)(C)C)CC2)c(=O)n1-c1cccc(C(F)(F)F)c1 [Example 65, [2-(Trans-4-{[2′-(4-cyano-phenyl)-2-methyl-5-oxo-1-(3-trifluoromethyl-phenyl)-2,5-dihydro-1H,2′H-[3,3′]bipyrazolyl-4-carbonyl]-amino}-cyclohexanecarbonyloxy)-ethyl]-trimethyl-ammonium benzene sulphonate]	< 1 nM
C[C@H](NC(=O)c1c(-c2ccnn2-c2ccc(C#N)cc2)n(C)n(-c2cccc(C(F)(F)F)c2)c1=O)C(=O)N1CCC[N+](C)(C)CC1 [Example 66, 4-((S)-2-{[2′-(4-Cyano-phenyl)-2-methyl-5-oxo-1-(3-trifluoromethyl-phenyl)-2,5-dihydro-1H,2′H-[3,3′]bipyrazolyl-4-carbonyl]-amino}-propionyl)-1,1-dimethyl-[1,4]diazepan-1-ium benzene sulphonate]	< 1 nM
Cn1c(-c2ccnn2-c2ccc(C#N)cc2)c(C(=O)N[C@H]2CC[C@H](c3ncc(C[N+](C)(C)C)o3)CC2)c(=O)n1-c1cccc(C(F)(F)F)c1 [Example 67, [2-(Trans-4-{[2′-(4-Cyano-phenyl)-2-methyl-5-oxo-1-(3-trifluoromethyl-phenyl)-2,5-dihydro-1H,2′H-[3,3′]bipyrazolyl-4-carbonyl]-amino}-cyclohexyl)-oxazol-5-ylmethyl]-trimethyl-ammonium benzene sulphonate]	< 1 nM
